“Also recorded” adds a separate entry of the source.

The text below walks through data of patent publication US10751304B2, “Topical and transdermal delivery of HIF-1 modulators to prevent and treat chronic wounds” (The Board of Trustees of the Leland Stanford Junior …, priority 2008, dated 2020).

Series [1] has as its system pressure ulcers on the dorsum of aged mice. Description: Murine pressure (decubitus) ulcer model in aged mice. Conditions: n=6. In kind it is in vivo. An excerpt:
(§1) Pressure ulcers on the dorsum of aged mice (19 month, NIA) and Diabetic (Db/Db) C57Bl/6 mice (n=6 per group) where created using two ceramic magnets (12 mm diameter and 5 mm thick, and average weight of 2.4 g) that apply 50 mm Hg pressure to the skin between them (Stadler et. al. J Invest Surg. 2004 July-August; 17(4):221-7). A single ischemia/reperfusion (I/R) cycle consists of placement of magnets (ischemia) for a designated time period followed by release (reperfusion). Three ischemia-reperfusion cycles were used in each animal to initiate decubitus ulcer formation (either in 3 h or 12 h cycles). Animals were housed individually, to prevent the accidental dislocation of the magnets and to prevent tampering with the resultant ulcer.
(§2) CD31 staining was performed on paraffin embedded 5-micron wound sections (1:50, Santa Cruz Biotechnology, Santa Cruz, Calif.) diluted in blocking goat serum overnight at 4° C. […] Sections were then mounted with Vectashield plus DAPI (Vector Laboratories, Burlingame, Calif.), and analyzed using a Zeiss Axioplan 2 light-fluorescent microscope (Carl Zeiss Vision, Germany) equipped with Zeiss AxioCam HR digital imaging software (Carl Zeiss Vision). […]
We evaluated the ability of DFO to prevent pressure ulcer formation, which has been associated with HIF-1α dysfunction and diabetes, using a previously described murine pressure ulcer model. […]

A further series has as its system diabetic ulcers. Description: Murine pressure ulcer model, diabetic mice, transdermal patch. In kind it is in vivo. To be noted: transdermal patch delivery; controls Day 45+.
Excerpt: as §1
30 μm fresh frozen sections were washed with PBS and stained with 10 μM Dihydroethidium (DHE, invitrogen) at 37 C for 30 minutes. Slides were then washed with PBS, and Vectashield with DAPI was added.
Transdermal delivery of DFO reduces ROS accumulation and ulcer formation: We have completed studies examining the ability of our DFO patch to ameliorate diabetes-associated deficits in wound healing using our pressure ulcer model. This injury model causes increased levels of ROS, as assayed using dihydroethidium (DHE) fluorescent staining.

Series [2] is described as follows: DFO patch release and skin penetration (Example 4). In kind it is in vitro ADME.
In series [3] the test system is excisional wounds of diabetic (Db/Db) mice. The series can be described thus: Murine excisional wound healing model, diabetic (Db/Db) mice. It is filed as in vivo. To be noted: topical, delivery control day 23.
Excerpt: Young (8 weeks, Jackson Laboratories) aged (18-24 months, National Institute of Aging aged rodent colony), and Diabetic (Db/Db) C57/BL6 mice (n=4 per group) underwent excisional wound biopsies in accordance with the Stanford University Institutional Animal Care and Use Committees. Wounds were made as previously described. Briefly, two 6-mm circular, full-thickness wounds were made on the dorsum of mice. A 12 mm diameter, 0.5 mm thick donut shaped silicone ring (Grace Bio-Labs, Bend, Oreg.) was then placed around the wounds preventing premature skin contracture. […] Wounds were dressed with a sterile occlusive dressing that was changed daily, monitored, and photographed every other day until closure. […]
as §2
Transdermal delivery of DFO accelerates murine wound healing: Given the optimal release properties and structural parameters determined above, we sought to evaluate the ability of our DFO delivery device to improve gross wound healing in diabetic mice. […]

Another series concerns VEGF. Description: VEGF ELISA of harvested wounds. To be noted: control 100 ng/ml. It is filed as in vivo, murine. The protocol:
ELISA. Total protein was isolated from harvested wounds by homogenizing tissue in RIPA buffer. VEGF and SDF-1 levels were measured using the Quantikine murine VEGF and SDF-1 ELISA kits (R&D Systems, Minneapolis, Minn.) according to manufacturer's instructions.
(In general: In an ELISA, binding on a coated surface is turned into a signal by an enzyme label.)

In series [1] (controls day 19), `CC(=O)N(O)CCCCCNC(=O)CCC(=O)N(O)CCCCCNC(=O)CCC(=O)N(O)CCCCCN` [deferoxamine] returned a ulcer closure date of 17 days. The same molecule showed a Ulcer incidence in series [1] (pressure ulcer model, controls 100%) of 33%. Also, in the series on diabetic ulcers, the diabetic ulcer closure came to 30 days. Moreover, in series [2] (reverse micelles destabilized using 5% DMSO, listed as DFO), the “DFO uptake into the skin / DFO delivery” value is “inhibit DFO delivery; also recorded: significantly reduces the DFO uptake into the skin”. For the same molecule, in series [2] (without an occlusive backing), the drug penetration entry is given as “very minimal drug penetration”. The “reduction in skin penetration of DFO” value in series [2] (without backing membrane) was 10 fold. The molecule further returned a wound closure in series [3] of 13 days. Further, the “VEGF via ELISA” value in the series with VEGF was found to be 200 ng/mL.
